“Also recorded” adds a separate entry of the source.
Legend:
[1] = target: T1, chymotrypsin-like activity in living prostate (PC-3) cancer cells (Homo sapiens, UniProt P28074); test: Proteasome chymotrypsin-like activity in living PC-3 cells; type: cell-based
T1 construct: endogenous in cells; host or cells: PC-3 cells (intact)
Description: Inhibition of the proteasome activity in living cells by tea polyphenols—To measure inhibition of the chymotrypsin-like activity in living tumor cells, Jurkat T (1×10^5 cells/ml/well), MCF7 or PC-3 cells (1×10^4 cells/ml/well) are cultured in 24-well plates. These cells are first incubated for 12 h with various concentrations of EGCG, EGC, β-lactone or LLnL, followed by an additional 2 h-incubation with fluorogenic peptide substrates, Suc-Leu-Leu-Val-Tyr-AMC for the chymotrypsin-like activity and Z-Gly-Gly-Arg-AMC for the trypsin-like activity. After that, cell medium (200 μl per sample) is collected and used for measurement of free AMCs.
(b) The peptide substrate for the proteasomal chymotrypsin-like activity, Suc-Leu-Leu-Val-Tyr-AMC, is used to measure the proteasome activity in intact Jurkat, MCF-7 and PC-3 cells, which is inhibitable by co-incubation with EGCG (FIG. 16C). A similar assay is performed to measure potency and selectivity of EGCG (vs. EGC) or ECG (vs. EC) in the selected cell lines. […] After that, medium is collected and the liberated AMCs in the medium are measured by fluorometer to measure in vivo potency and selectivity of tea polyphenols.

[2] = system: p27 in MCF-7 tumors; test: Nude mice bearing human breast MCF-7 tumors, biochemical end points; type: in vivo; details: mice pre-fed or injected into the tumors
From the text: Treatment of drinking water with green tea, a green tea polyphenol extract or EGCG, or direct injection into tumors of a solution containing a green tea polyphenol extract or EGCG, inhibits breast or other tumor growth in nude mice. In (a) it is shown that antitumor activity of tea polyphenols correlates to their potency to inhibit the proteasome activity. All mice receive a 90-day slow-release subcutaneous (s.c.) estrogen pellet (Innovative Research) in the anterior flank 7 days before tumor inoculation. In Experiment 1, mice (5 per group) are pre-fed with a solution of EGCG, EGC, ECG, EC, a green tea extract (1, 10, and 50 mg/kg) or water three times per week for 2 weeks, followed by s.c. implanting human breast MCF-7 tumor cells in nude mice above the right and left flanks (10^7 cells per flank). When tumors in the control group reach ˜1000 mm^3 the experiment is terminated. […] Evaluation of the antitumor activity of tea polyphenols is determined by measuring the change in tumor size of the treated group compared to the control group. […] Levels of p27 and Bax protein in tumor tissues are measured by Western blotting and immunohistochemistry. […] Bax localization (by immunohistochemistry), processing of caspase-3, cleavage of PARP (by Western blotting) and apoptosis (by TUNEL) are then measured. […]

[3] = target: T2, proteasomal PGPH activity in Jurkat T cell extract (Homo sapiens, UniProt P28072); test: Proteasome PGPH activity in Jurkat T cell free extract; type: biochemical; details: EGCG 10 μM
T2 construct: endogenous in cells; host or cells: Jurkat T cell whole cell extract
Description: Inhibition of the proteasome activity with cell free extracts by tea polyphenols—The whole cell extract (3.5 μg) from Jurkat T cells is incubated for 90 min at 37° C. with 20 μM of a fluorogenic peptide substrate, Suc-Leu-Leu-Val-Tyr-AMC (for the chymotrypsin-like activity), Z-Leu-Leu-Glu-AMC [peptidyl-glutamyl peptide-hydrolyzing (PGPH) activity; Calbiochem], and Z-Gly-Gly-Arg-AMC (for the trypsin-like activity; Bachem), in 100 μl of the assay buffer with or without 10 μM EGCG or EGC. The hydrolyzed AMCs are quantified as described above.

[4] = system: p27 and IκB-α in LNCaP cells; test: Western blot of proteasome substrates in LNCaP cells; type: cell-based, human; details: 1 or 10 μM, 12 h
Description: FIG. 5. Western blot analysis. A, Jurkat T cells are treated with 1 or 10 μM of EGCG or EGC for 12 h, or B, C, 25 μM of EGCG for various times, followed by Western blot assay using specific antibodies to p27, IκB-α, ubiquitin or actin, as indicated. MWs of IκB-α and actin are 40 and 43 kDa, respectively. The band of 56 kDa, indicated by an arrow in (B), is an ubiquitinated or phosphorylated form of IκB-α. The bands indicated in (C) are ubiquitin-containing proteins. D, LNCaP cells are treated with 1 or 10 μM of EGCG for 12 h. Western bot is performed as described above. E, F, Jurkat T cells are pretreated with 10 μg/ml cycloheximide for 2 hr, followed by co-incubation with 1 or 10 μM of EGCG for 8 or 12 hr as indicated. The p70 is a putative ubiquitinated p27-containing complex (An et al., 1998, Cell Death Differ 5: 1062-75).
Western blot analysis—Western blot assay is performed as described previously (An et al., (1998) Cell Death Differ 5(12), 1062-75) using specific antibodies to p27^Kip (monoclonal; Pharmingen), IκB-α (polyclonal; Santa Cruz), ubiquitin (polyclonal; Sigma) or actin (polyclonal; Santa Cruz). In brief, Jurkat T or LNCaP cells are treated with EGCG or EGC in dose-response or time-dependent manner. Cells are harvested and lysated using the whole lysis buffer. […] Immunocomplexes are detected using the ECL detection reagents kit (Amersham, Piscataway, N.J.).

With `O=C(O[C@@H]1Cc2c(O)cc(O)cc2O[C@@H]1c1cc(O)c(O)c(O)c1)c1cc(O)c(O)c(O)c1` [EGCG, (−)-epigallocatechin-3-gallate] the “inhibition of chymotrypsin-like activity in living PC-3 cells (in words)” value [1] was “inhibitable; also recorded: inhibits”, the “p27 levels in tumors” value [2] was “Increased p27 levels” and the “inhibition of proteasomal PGPH activity (in words)” value [3] was “potently inhibits”. For the same molecule, the “p27 and IκB protein expression” value [4] was “accumulated”.
